Read-outs that look alike come from different tables or passages of the source.
Legend:
Format in all cases: cell-based
[1] = tested on: Campylobacter jejuni PPMQ3b; details: P<0.05
[2] = tested on: Campylobacter jejuni PPMQ2b; details: P<0.05
[3] = tested on: Campylobacter coli ATCC 33559; details: P<0.05
[4] = tested on: Campylobacter jejuni subsp. jejuni ATCC 33560
[5] = any of the concentrations tested
[6] = approximately 30, 40, or 50 mM acid
[7] = approximately 20, 30, 40, or 50 mM acid, P<0.05
[8] = approximately 20, 30, 40, and 50 mM acid

SMILES	absorbance compared with cultures grown in non-supplemented media [2, 5]	absorbance compared with cultures in non-supplemented media [3, 6]	absorbance compared with cultures grown in non-supplemented media ([1]; approximately 20 mM acid)	absorbance compared with cultures in non-supplemented media [4, 7]	acid concentration required to produce cultures with higher absorbance than in non-supplemented media [2]	absorbance compared with cultures in non-supplemented media [3, 8]	also measured
O=C(O)CCC(=O)O [Succinic, succinic acid]	none of the concentrations of succinic acid produced significantly higher absorbances	significantly higher	–	–	–	–	absorbance compared with cultures grown in non-supplemented media ([1]; approximately 40 and 50 mM acid): significantly higher; absorbance compared with cultures in non-supplemented media ([4]; approximately 30, 40, or 50 mM acid, P<0.05): significantly higher
CC(O)C(=O)O (racemic) [Lactic, DL-lactic acid]	–	significantly greater	significantly greater	significantly higher	–	–	absorbance compared with cultures grown in non-supplemented media ([2]; approximately 20, 30, 40, or 50 mM acid): significantly greater
O=C(O)CC(O)C(=O)O (racemic) [Malic, DL-malic acid]	–	–	–	significantly higher	approximately 40 mM	significantly higher	acid concentration required to produce cultures with significantly higher absorbances than in non-supplemented media [1]: approximately 20 mM
O=C(O)/C=C/C(=O)O [Fumaric, fumaric acid]	–	–	significantly higher	significantly higher	approximately 30 mM	significantly higher	–
O=C(O)CC(O)(CC(=O)O)C(=O)O [Citric, citric acid]	not significantly different	–	small but significantly higher	–	–	–	absorbance compared with isolates grown in non-supplemented media ([3]; approximately 50 mM acid): not significantly different; growth compared with non-supplemented media ([3]; approximately 30 or 40 mM acid): significantly more growth; growth compared with non-supplemented media [4]: significantly more growth; absorbance compared with isolates grown in non-supplemented media ([4]; approximately 50 mM acid, P<0.05): not significantly different
